In patent US11117875B2, “Crystalline forms, preparation methods and pharmaceutical compositions of ozanimod” (Hangzhou SoliPharma Co., Ltd., priority 2016, dated 2021):
Read-outs that look alike come from different tables or passages of the source.

What was measured:
Type in all cases: physicochemical
[1] = Form stability test at 50° C.; details: for Crystalline form, storage time 0 day / Form stability after having been placed at 50° C. for 1 day: 50° C.; for Crystalline form, storage time 0 day: 0 day (start); for Crystalline form, storage time 5 days: placed at 50° C.
Description: The known ozanimod solid of Preparation Example 1 and ozanimod Form 1 of Example 1 were tested in form stability test. The procedures are detailed as follows: placed about 20 mg of the above two samples respectively at 50° C., and studied their form stability.

[2] = Storage at room temperature in desiccators with relative humidity ranging from 10% to 90%; details: relative humidity 10% to 90%
[3] = Form stability in water (stirred in water)
Description: The form stability in water of the known ozanimod of Preparation Example 1 and ozanimod Form 2 of Example 10 were compared. The procedures are detailed as follows: took about 20 mg of the above two samples respectively, stirred in water, and studied the form stability.

[4] = Form stability under 97% relative humidity; details: for Crystalline form, storage time 5 days: 97% RH environment; for Crystalline form, storage time 0 day: 0 day (start)
Description: The known ozanimod of Preparation Example 1 and ozanimod Form 3 of Example 19 were compared in their form stability under 97% relative humidity. The procedures are detailed as follows: placed about 20 mg of the above two samples respectively at 97% RH environment, and studied their crystalline form stability.

[5] = listed as known amorphous form of ozanimod

Crystalline form, storage time 0 day [1]	Form stability after having been placed at 50° C. for 1 day [1]	Crystalline form, storage time 5 days [1]	Crystalline form, storage time 5 days ([1]; listed as ozanimod Form 1)	Appearance, XRPD and melting point after 4 months storage [2]	Crystalline form after stirred in water for 3 days [3]	Crystalline form after stirred in water for 3 days ([3]; listed as Form 2)	Crystalline form after stirred in water for 3 days ([3]; listed as ozanimod Form 2)	Crystalline form, storage time 5 days [4]	Crystalline form, storage time 0 day ([4]; 97% RH)	Form stability after storage at 97% RH for 10 days ([4]; 97% RH, 10 days)	Form stability at room temperature and 97% relative humidity for 3 days [4]	Form stability after having been placed at 50° C. for 1 day [1, 5]	Crystalline form after stirred in water for 3 days [3, 5]	Form stability at room temperature and 97% relative humidity for 3 days [4, 5]	Structure (SMILES)
Form 1	remained unchanged	Remained Form 1	more stable	remained unchanged	–	–	–	–	–	–	–	–	–	–	CC(C)Oc1ccc(-c2nc(-c3cccc4c3CC[C@@H]4NCCO)no2)cc1C#N [Ozanimod Form 1, 5-[3-[(1S)-2,3-dihydro-1-(2-hydroxyethylamino)-1H-inden-4-yl]-1,2,4-oxadiazol-5-yl]-2-isopropoxybenzonitrile]
–	–	–	–	remained unchanged	Remained Form 2	remained unchanged	remained unchanged	–	–	–	–	–	–	–	CC(C)Oc1ccc(-c2nc(-c3cccc4c3CC[C@@H]4NCCO)no2)cc1C#N [Ozanimod Form 2, 5-[3-[(1S)-2,3-dihydro-1-(2-hydroxyethylamino)-1H-inden-4-yl]-1,2,4-oxadiazol-5-yl]-2-isopropoxybenzonitrile]
–	–	–	–	–	–	–	–	Remained Form 3	Form 3	remained unchanged	remained unchanged	–	–	–	CC(C)Oc1ccc(-c2nc(-c3cccc4c3CC[C@@H]4NCCO)no2)cc1C#N [Ozanimod Form 3, 5-[3-[(1S)-2,3-dihydro-1-(2-hydroxyethylamino)-1H-inden-4-yl]-1,2,4-oxadiazol-5-yl]-2-isopropoxybenzonitrile]
Amorphous	–	Weak diffraction	–	–	Transformed to Form 2	–	–	Weak diffraction	Amorphous	–	–	showed diffraction peaks	turned to Form 2	turned to Form 3	CC(C)Oc1ccc(-c2nc(-c3cccc4c3CC[C@@H]4NCCO)no2)cc1C#N [The known ozanimod, 5-[3-[(1S)-2,3-dihydro-1-(2-hydroxyethylamino)-1H-inden-4-yl]-1,2,4-oxadiazol-5-yl]-2-isopropoxybenzonitrile, reference compound]
